Reference: patent US20050107386A1, “Methods of treating diseases and disorders by targeting multiple kinases” (priority 2003, published 2005)

What was measured:
p70S6K(h) = p70S6K(h) (Homo sapiens, UniProt P23443); assay: p70S6K(h) kinase assay; type: biochemical; settings: 3 μM; percent of control kinase activity
Experimental: (§1) Six compounds (presumptive single agents) were tested against a panel of 50 kinases. The results are presented in Table 2; numbers for each kinase indicate the percent of control kinase activity in the presence of a 3μM concentration of the indicated agent.
(§2) Agents that target two or more different kinases are useful in the methods of the invention as described elsewhere herein. Such compounds may be identified, and their effect on certain kinases may be identified, using the assays briefly described below in Examples 4-83. Each of these assays was carried out as described in Davies et al., Biochem. J., 351:95-105 (2000). All assays were carried out at 10 μM ATP unless otherwise noted.
(§3) In a final reaction volume of 25 μl, p70S6K (h) (5-10 mU) is incubated with 8 mM MOPS pH 7.0, 0.2 mM EDTA, 100 μM […] (SEQ ID NO:9), 10 mM MgAcetate and [γ-^33P-ATP] (specific activity approx. 500 cpm/pmol, concentration as required). The reaction is initiated by the addition of Mg^2+ [γ-^33P-ATP]. After incubation for 40 minutes at room temperature, the reaction is stopped by the addition of 5 μl of a 3% phosphoric acid solution. 10 μl of the reaction is then spotted onto a P30 filtermat and washed three times for 5 minutes in 75 mM phosphoric acid and once in methanol prior to drying and scintillation counting.

Lyn(h) = Lyn(h) (Homo sapiens, UniProt P07948); assay: Lyn(h) kinase assay; type: biochemical; settings: 3 μM; percent of control kinase activity
Syk(h) = Syk(h) (Homo sapiens, UniProt P43405); assay: Syk(h) kinase assay; type: biochemical; settings: 3 μM; percent of control kinase activity
Experimental: as §1, §2
(§4) In a final reaction volume of 25 μl, Syk (h) (5-10 mU) is incubated with 50 mM Tris pH 7.5, 0.1 mM EGTA, 0.1 mM NaVanadate, 0.1% β-mercaptoethanol, 0.1 mg/ml poly(Glu, Tyr) 4:1, 10 mM MgAcetate and [γ-^33P-ATP] (specific activity approx. 500 cpm/pmol, concentration as required). The reaction is initiated by the addition of Mg^2+ [γ-^33P-ATP]. After incubation for 40 minutes at room temperature, the reaction is stopped by the addition of 5 μl of a 3% phosphoric acid solution. 10 μl of the reaction is then spotted onto a Filtermat A and washed three times for 5 minutes in 75 mM phosphoric acid and once in methanol prior to drying and scintillation counting.

Rsk2(h) = Rsk2(h) (Homo sapiens, UniProt P51812); assay: Rsk2(h) kinase assay; type: biochemical; settings: 3 μM; percent of control kinase activity
Experimental: as §1, §2
as §3, with “Rsk2(h)” for “p70S6K (h)”, “30” for “100”, “NO:11),” for “NO:9),”

c-RAF(h) = c-RAF(h) kinase assay; type: biochemical, human; settings: 3 μM; percent of control kinase activity
Experimental: as §1, §2
as §4, with “μl, c-RAF” for “μl, Syk”, “with 25” for “with 50”, “7.5, 0.02” for “7.5, 0.1”, “EGTA, 0.66” for “EGTA, 0.1 mM NaVanadate, 0.1% β-mercaptoethanol, 0.1”, “mg/ml myelin basic protein,” for “mg/ml poly(Glu, Tyr) 4:1,”, “a P30 filtermat” for “a Filtermat A”

Fes(h) = Fes(h) (Homo sapiens, UniProt P07332); assay: Fes(h) kinase assay; type: biochemical; settings: 3 μM; percent of control kinase activity
Experimental: as §1, §2
as §4, with “μl, Fes(h)” for “μl, Syk (h)”, “with 8” for “with 50”, “mM MOPS” for “mM Tris”, “pH 7.0, 0.2” for “pH 7.5, 0.1”, “mM EDTA,” for “mM EGTA, 0.1 mM NaVanadate, 0.1% β-mercaptoethanol,”

CDK5/p35(h) = CDK5/p35(h) (Homo sapiens, UniProt Q00535); assay: CDK5/p35(h) kinase assay; type: biochemical; settings: 3 μM; percent of control kinase activity
Experimental: as §1, §2
In a final reaction volume of 25 μl, CDK5/p35 (h) (5-10 mU) is incubated with 8 mM MOPS pH 7.0, 0.2 mM EDTA, 0.1 mg/ml histone H1, 10 mM MgAcetate and [γ-^33P-ATP] (specific activity approx. 500 cpm/pmol, concentration as required). The reaction is initiated by the addition of Mg^2+ [γ-^33P-ATP]. After incubation for 40 minutes at room temperature, the reaction is stopped by the addition of 5 μl of a 3% phosphoric acid solution. 10 μl of the reaction is then spotted onto a P30 filtermat and washed three times for 5 minutes in 75 mM phosphoric acid and once in methanol prior to drying and scintillation counting.

CK2(h) = CK2(h) (Homo sapiens, UniProt P68400); assay: CK2(h) kinase assay; type: biochemical; settings: 3 μM; percent of control kinase activity
Experimental: as §1, §2
as §3, with “CK2(h)” for “p70S6K (h)”, “20” for “8”, “Hepes” for “MOPS”, “7.6, 0.15 M NaCl, 0.1” for “7.0, 0.2”, “5 mM DTT, 0.1% Triton X-100, 165” for “100”, “NO:6),” for “NO:9),”

Rsk1(h) = Rsk1(h) (Homo sapiens, UniProt Q15418); assay: Rsk1(h) kinase assay; type: biochemical; settings: for Inhibitory activity (% of control), Rsk1(h): 3 μM, percent of control kinase activity
Rsk1(h), sequence (Q15418 whole entry): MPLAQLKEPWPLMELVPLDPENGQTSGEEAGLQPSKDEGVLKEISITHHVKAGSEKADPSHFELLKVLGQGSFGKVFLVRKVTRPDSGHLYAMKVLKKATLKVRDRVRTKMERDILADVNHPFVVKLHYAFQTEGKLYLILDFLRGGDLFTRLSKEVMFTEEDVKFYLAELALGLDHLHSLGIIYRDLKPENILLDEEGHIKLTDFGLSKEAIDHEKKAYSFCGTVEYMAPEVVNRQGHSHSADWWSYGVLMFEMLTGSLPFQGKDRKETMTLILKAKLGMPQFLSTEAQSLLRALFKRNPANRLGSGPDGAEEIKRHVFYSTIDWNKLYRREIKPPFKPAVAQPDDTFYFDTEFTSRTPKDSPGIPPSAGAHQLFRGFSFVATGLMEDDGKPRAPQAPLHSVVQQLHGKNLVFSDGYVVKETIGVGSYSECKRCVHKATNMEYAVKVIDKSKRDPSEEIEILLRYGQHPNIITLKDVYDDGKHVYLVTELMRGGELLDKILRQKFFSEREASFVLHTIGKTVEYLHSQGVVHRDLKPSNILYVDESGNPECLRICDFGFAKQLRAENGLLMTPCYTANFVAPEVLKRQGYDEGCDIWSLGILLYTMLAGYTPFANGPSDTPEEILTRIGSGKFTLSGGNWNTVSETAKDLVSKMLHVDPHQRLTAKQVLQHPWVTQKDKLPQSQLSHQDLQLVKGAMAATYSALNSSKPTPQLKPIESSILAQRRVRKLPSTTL

CK2(h), sequence (P68400 whole entry): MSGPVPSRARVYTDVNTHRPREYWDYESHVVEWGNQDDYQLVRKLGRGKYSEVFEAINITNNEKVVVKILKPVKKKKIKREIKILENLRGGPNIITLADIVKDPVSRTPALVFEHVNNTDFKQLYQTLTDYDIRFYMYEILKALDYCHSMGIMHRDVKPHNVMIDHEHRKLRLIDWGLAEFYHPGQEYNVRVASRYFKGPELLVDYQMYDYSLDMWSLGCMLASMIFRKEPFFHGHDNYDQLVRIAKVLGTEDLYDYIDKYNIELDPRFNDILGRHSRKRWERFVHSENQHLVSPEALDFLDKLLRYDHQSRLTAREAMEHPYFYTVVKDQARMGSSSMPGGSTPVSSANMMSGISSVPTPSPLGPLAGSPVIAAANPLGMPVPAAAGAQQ
CK2(h), sequence (P67870 whole entry partner): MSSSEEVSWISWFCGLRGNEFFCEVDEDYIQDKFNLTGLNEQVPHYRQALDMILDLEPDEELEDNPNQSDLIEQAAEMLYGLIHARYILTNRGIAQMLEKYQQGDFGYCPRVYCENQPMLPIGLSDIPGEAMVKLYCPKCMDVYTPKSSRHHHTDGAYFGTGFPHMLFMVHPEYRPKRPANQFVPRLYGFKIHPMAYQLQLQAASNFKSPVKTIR
Fes(h), sequence (P07332 whole entry): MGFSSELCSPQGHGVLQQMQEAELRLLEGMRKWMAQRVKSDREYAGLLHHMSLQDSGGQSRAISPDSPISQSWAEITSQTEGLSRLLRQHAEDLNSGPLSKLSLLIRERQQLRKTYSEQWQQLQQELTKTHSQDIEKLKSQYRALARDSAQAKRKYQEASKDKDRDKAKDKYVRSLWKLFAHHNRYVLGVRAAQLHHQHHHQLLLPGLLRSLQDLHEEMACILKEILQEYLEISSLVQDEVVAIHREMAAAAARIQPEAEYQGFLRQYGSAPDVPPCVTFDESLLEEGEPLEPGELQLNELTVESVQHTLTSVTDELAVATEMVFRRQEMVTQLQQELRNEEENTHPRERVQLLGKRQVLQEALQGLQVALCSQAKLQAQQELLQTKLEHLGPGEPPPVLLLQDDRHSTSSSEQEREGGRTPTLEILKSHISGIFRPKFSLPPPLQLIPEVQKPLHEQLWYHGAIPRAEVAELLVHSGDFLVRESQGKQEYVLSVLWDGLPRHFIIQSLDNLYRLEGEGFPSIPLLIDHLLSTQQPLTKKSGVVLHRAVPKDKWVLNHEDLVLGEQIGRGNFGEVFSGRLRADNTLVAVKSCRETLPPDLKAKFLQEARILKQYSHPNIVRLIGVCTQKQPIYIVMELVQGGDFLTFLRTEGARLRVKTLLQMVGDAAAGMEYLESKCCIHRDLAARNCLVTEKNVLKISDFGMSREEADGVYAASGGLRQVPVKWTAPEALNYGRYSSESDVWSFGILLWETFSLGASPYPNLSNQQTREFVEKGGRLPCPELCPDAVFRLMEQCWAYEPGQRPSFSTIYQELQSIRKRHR
Rsk2(h), sequence (P51812 whole entry): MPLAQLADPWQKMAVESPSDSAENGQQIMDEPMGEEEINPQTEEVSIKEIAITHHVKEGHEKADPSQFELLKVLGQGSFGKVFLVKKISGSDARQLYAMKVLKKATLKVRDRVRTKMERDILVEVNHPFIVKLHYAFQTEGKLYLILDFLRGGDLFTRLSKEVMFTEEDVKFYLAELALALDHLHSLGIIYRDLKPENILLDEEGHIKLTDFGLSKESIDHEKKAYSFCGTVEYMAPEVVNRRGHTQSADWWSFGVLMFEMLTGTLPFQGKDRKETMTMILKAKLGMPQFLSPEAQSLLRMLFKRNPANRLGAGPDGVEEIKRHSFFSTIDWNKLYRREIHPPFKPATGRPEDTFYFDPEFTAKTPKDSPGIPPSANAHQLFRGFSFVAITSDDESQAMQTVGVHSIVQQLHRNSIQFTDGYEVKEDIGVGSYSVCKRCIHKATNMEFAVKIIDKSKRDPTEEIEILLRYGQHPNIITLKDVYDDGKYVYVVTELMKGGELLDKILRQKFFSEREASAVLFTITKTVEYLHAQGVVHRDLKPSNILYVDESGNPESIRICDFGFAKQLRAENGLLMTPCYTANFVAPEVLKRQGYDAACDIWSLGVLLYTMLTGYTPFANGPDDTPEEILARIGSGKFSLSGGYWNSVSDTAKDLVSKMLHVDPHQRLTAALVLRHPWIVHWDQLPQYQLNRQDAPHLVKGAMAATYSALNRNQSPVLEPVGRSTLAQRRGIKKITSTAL
Lyn(h), sequence (P07948 2-512 limits assumed): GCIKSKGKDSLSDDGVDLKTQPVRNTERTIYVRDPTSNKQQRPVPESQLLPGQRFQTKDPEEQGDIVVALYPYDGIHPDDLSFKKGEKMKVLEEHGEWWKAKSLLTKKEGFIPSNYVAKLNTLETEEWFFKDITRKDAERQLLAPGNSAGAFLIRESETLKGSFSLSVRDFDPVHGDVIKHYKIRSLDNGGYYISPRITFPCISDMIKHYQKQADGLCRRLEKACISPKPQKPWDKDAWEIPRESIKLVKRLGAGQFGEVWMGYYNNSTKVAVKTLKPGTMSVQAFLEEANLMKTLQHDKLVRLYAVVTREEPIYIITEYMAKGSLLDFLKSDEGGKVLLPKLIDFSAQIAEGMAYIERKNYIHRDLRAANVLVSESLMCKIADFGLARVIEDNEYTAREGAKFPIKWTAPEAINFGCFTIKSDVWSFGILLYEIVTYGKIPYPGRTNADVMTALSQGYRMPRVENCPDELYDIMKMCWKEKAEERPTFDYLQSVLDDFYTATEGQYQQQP
p70S6K(h), sequence (P23443 whole entry): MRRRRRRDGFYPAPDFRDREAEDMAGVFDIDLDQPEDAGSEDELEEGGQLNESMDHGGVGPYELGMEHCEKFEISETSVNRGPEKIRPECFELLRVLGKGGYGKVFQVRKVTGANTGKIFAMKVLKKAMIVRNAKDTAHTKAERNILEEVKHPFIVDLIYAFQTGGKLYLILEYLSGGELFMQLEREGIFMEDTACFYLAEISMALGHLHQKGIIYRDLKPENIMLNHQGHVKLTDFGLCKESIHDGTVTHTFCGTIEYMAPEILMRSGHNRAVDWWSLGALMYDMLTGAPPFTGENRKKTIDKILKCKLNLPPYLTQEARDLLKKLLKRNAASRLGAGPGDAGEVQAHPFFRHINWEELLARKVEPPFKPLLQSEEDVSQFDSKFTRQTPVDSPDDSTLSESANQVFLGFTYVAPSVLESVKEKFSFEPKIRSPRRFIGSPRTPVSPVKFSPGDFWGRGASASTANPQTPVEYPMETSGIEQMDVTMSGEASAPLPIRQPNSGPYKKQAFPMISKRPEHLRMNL
CDK5/p35(h), sequence (Q00535 whole entry): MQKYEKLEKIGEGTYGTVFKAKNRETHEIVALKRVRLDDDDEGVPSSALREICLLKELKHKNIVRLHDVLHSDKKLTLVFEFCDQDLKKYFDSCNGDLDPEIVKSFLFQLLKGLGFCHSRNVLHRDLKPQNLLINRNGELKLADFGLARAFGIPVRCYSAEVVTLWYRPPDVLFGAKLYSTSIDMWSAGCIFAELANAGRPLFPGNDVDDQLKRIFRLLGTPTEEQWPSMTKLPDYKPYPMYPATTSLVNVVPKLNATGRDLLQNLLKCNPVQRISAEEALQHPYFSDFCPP
CDK5/p35(h), sequence (Q15078 whole entry partner): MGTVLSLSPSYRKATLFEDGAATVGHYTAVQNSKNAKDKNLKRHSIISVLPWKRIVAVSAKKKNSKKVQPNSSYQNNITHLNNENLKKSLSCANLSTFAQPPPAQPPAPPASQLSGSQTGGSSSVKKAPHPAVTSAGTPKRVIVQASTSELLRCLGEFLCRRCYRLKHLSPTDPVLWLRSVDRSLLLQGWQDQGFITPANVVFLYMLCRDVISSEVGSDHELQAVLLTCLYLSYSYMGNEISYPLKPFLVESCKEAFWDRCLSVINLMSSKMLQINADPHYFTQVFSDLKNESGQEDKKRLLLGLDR

Inhibitory activity (% of control), p70S6K(h) (p70S6K(h))	Inhibitory activity (% of control), Lyn(h) (Lyn(h))	Inhibitory activity (% of control), Syk(h) (Syk(h))	Inhibitory activity (% of control), Rsk2(h) (Rsk2(h))	Inhibitory activity (% of control), c-RAF(h) (c-RAF(h))	Inhibitory activity (% of control), Fes(h) (Fes(h))	Inhibitory activity (% of control), CDK5/p35(h) (CDK5/p35(h))	Inhibitory activity (% of control), CK2(h) (CK2(h))	Inhibitory activity (% of control), Rsk1(h) (Rsk1(h))	inhibitory activity against Rsk1, in words (Rsk1(h); summary of Table 2)	Compound
16 % of control	2 % of control	14 % of control	5 % of control	96 % of control	10 % of control	16 % of control	41 % of control	3 % of control		CC(C)Cc1nc(-c2ccc3[nH]nc(-c4ccc5cc(OCCN6CCCC6)ccc5c4)c3c2)n[nH]1 [CC002, 5-(5-Isobutyl-1H-[1,2,4]Triazol-3-yl)-3-[6-(2-Pyrrolidin-1-yl-Ethoxy)-Naphthalen-2-yl]-1H-Indazole]
40 % of control	62 % of control	47 % of control	34 % of control	85 % of control	70 % of control	10 % of control	98 % of control	29 % of control	good inhibitory activity	CC(C)(C)Cc1nc(-c2ccc3[nH]nc(-c4ccc5cc(OCc6ccccn6)ccc5c4)c3c2)n[nH]1 [CC004, 5-[5-(2,2-Dimethyl-propyl)-1H-[1,2,4]triazol-3-yl]-3-[6-(pyridine-2-ylmethoxy)-naphthalen-2-yl]-1H-indazole]
3 % of control	2 % of control	15 % of control	3 % of control	100 % of control	8 % of control	8 % of control	74 % of control	2 % of control		CCN1CCC[C@H]1COc1ccc2cc(-c3n[nH]c4ccc(-c5nc(CC(C)(C)C)n[nH]5)cc34)ccc2c1 [CC005, 2-[((2s)-1-ethylpyrrolidin-2-yl)methoxy]-6-{5-[3-(2,2-Dimethylpropyl)(1H-1,2,4,-triazol-5-yl)](1H-indazol-3-yl)}naphthalene]
41 % of control	23 % of control	46 % of control	31 % of control	99 % of control	70 % of control	12 % of control	50 % of control	43 % of control		Fc1ccc(-c2n[nH]c3ccc(-c4n[nH]c(C5CCCC5)n4)cc23)cc1 [CC006, 5-(5-Cyclopentyl-1H-[1,2,4]triazol-3-yl)-3-(4-fluoro-phenyl)-1H-indazole, reference compound]
83 % of control	61 % of control	51 % of control	45 % of control	92 % of control	41 % of control	50 % of control	27 % of control	51 % of control		O=C(NC1CCCC1)c1cccc(-c2n[nH]c3ccc(-c4nc[nH]n4)cc23)c1 [CC007, 3-(5-(1H-1,2,4-triazol-3-yl)(1H-indazol-3-yl))phenyl-N-cyclopentylcarboxamide, reference compound]

Compound	Inhibitory activity (% of control), p70S6K(h) (p70S6K(h))	Inhibitory activity (% of control), Lyn(h) (Lyn(h))	Inhibitory activity (% of control), Syk(h) (Syk(h))	Inhibitory activity (% of control), Rsk2(h) (Rsk2(h))	Inhibitory activity (% of control), c-RAF(h) (c-RAF(h))	Inhibitory activity (% of control), Fes(h) (Fes(h))	Inhibitory activity (% of control), CDK5/p35(h) (CDK5/p35(h))	Inhibitory activity (% of control), CK2(h) (CK2(h))	Inhibitory activity (% of control), Rsk1(h) (Rsk1(h))	inhibitory activity against Rsk1, in words (Rsk1(h); summary of Table 2)
COc1ccc2cc(-c3n[nH]c4ccc(-c5n[nH]c(CN6CCOCC6)n5)cc34)ccc2c1 [CC001, 3-(6-Methoxynaphthalen-2-yl)-5-(5-Morpholin-4-Ylmethyl-1H-[1,2,4]Triazol-3-yl)-1H-Indazole]	17 % of control	5 % of control	26 % of control	6 % of control	99 % of control	34 % of control	7 % of control	45 % of control	4 % of control	
